Patent publication US20250109381A1, “COMPOSITION FOR CULTRING NK CELLS, COMPRISING ALLOFERON, AND METHOD FOR CULTURING NK CELLS USING SAME” (NK MEDICS INC., priority 2022, published 2025)

What was measured:
NK cells [1] = test: NK cell increase rate by flow cytometry (FACS, CD3-FITC/CD56-PE); type: cell-based, human; conditions: for NK (share of cells by FACS), Table 3 / NKT (share of cells by FACS), Table 3: 10 mg/L in NK cell culture medium of Example 1, 21 days
Description: Flow Cytometry (FACS analysis) analysis was performed to confirm the NK cell increase rate. Specifically, NK cells were cultured for 21 days in a medium containing 10 mg/L each of Test Example 1, Example 1 (untreated), and Alloferon 1 to 4 in Example 1. Cells before and after culture were collected by centrifugation at 1,400 rpm for 5minutes, and the collected cells were washed twice using PBS. Then, the cells were suspended in 1 ml of PBS, and the number of living cells was measured through Trypan blue staining. The cells were dispensed into FACS tubes at 1×10^6 cells/tube, and 2 ml of PBS was added. Then, centrifugation was performed at 400 g and 4° C. for 5 minutes, and the supernatant excluding cells was removed. 100 μl of 1% albumin was added to the remaining cell pellet, and antibodies were added and mixed with PBS. NK cells were treated with antibodies (CD3-FITC, CD56-PE), reacted in a light shielding state for 30 minutes, and then the cells were washed twice with PBS. NK cells were suspended in an appropriate amount of PBS, and then the data were compared and analyzed using FACSVerse (BD Biosciences, San Diego, CA, USA).

NK cells [2] = test: NK cell activation receptor (NKp30, NKp44, NKp46) and perforin expression by FACS; type: cell-based, human; conditions: for NKp30 expression / NKp44 expression / NKp46 expression / Perforin expression: NK cells proliferated 21 days, 10 mg/L in NK medium
Description: Based on the results of Test Example 3, receptor expression was confirmed and compared to measure the activity of NK cells. Specifically, as in Test Example 3, NK cells were cultured in each medium, and in order to measure the activity of NK cells proliferated for 21 days, the proliferated NK cells were isolated by flow cytometry. The expression of activating markers for these cells was further confirmed. The cultured NK cells were washed twice using PBS, then dispensed into a FACS tube at 1×10^6 cells/tube, and 2 ml of PBS was added. Then, centrifugation was performed at 400 g and 4° C. for 5 minutes, and the supernatant excluding cells was removed. 100 μl of 1% albumin was added to the remaining cell pellet, sorted using antibodies (CD3-FITC, CD56-PE) together with PBS, and then isolated according to surface markers. In addition to the isolated cells, NK cells were treated with antibodies (Anti-NKp30, anti-NKp44, anti NKp46, and Perforin) to confirm the expression of activating receptors (NKp30, NKp44, NKp46) and Perforin on the surface of NK cells, and reacted in a light shielding state for 30 minutes, and the cells were washed twice again using PBS. NK cells were suspended in an appropriate amount of PBS, and the data were compared and analyzed using FACS AriaII (BD Biosciences, San Diego, CA, USA).

NK cells [3] = test: IFN-gamma secretion of NK cells (Human IFN-y ELISA); type: cell-based; conditions: with IL-2 10 mg/L in typical medium, 48 hours; for IFN-r, Table 6: alloferon 100 mg/L
Description: IFN-r is an indicator of the activity of NK cells, and it is considered as the secretion amount is higher, the cytotoxicity is higher and the differentiation ability increases.
IFN-y secreted from NK cells was measured in the culture medium in which the cells were cultured, using a Human IFN-y ELISA kit (BD Biosciences, San Diego, CA, USA). 100 μl of capture antibody diluted in coating buffer was added to each well of a 96-well plate for ELISA, then sealed and left overnight at 4° C. It was washed three times using wash buffer, and all remaining buffer was removed. 200 μl of assay diluent was added to each well and reacted at room temperature for 1 hour for blocking. It was washed again three times using wash buffer, and all remaining buffer was removed. 100 μl of each prepared IFN-y standard and culture supernatants were added, the plate was sealed, and the reaction was performed at room temperature for 2 hours. It was washed 5 times using wash buffer, and all remaining buffer was removed. 100 μl of Working detector (Detection Antibody+SAv-HRP reagent) was added to each well, the plate was sealed, and reaction was performed at room temperature for 1 hour. It was washed 7 times using wash buffer, and all remaining buffer was removed. 100 μl of Substrate solution was added to each well and the reaction was performed at room temperature while shielding light for 30 minutes. 50 μl of Stop solution was added to each well, and the absorbance was measured at 450 nm within 30 minutes.

NK cells [4] = test: Cell proliferation assay (incorporation of [3H]-thymidine), NK cell culture with added alloferon; type: cell-based, human; conditions: 0.1 to 100 mg/L tested, cultured 21 days, FIG. 3
Description: 30 ml of blood was collected from a human blood donor, RosetteSep NK enrichment antibody cocktail (50 ul/ml) was added thereto, and then diluted 1:1 v/v with phosphate buffer solution (PBS). The blood was centrifuged at 1600 rpm for 20 minutes using a density gradient centrifugation (Ficoll-Plaque) to separate the cell layer containing NK cells. The process of washing and centrifuging this with PBS was repeated twice. Then, the number of cells was counted by staining with trypan blue, and the average number of cells obtained was 1.6˜3.0×10^5 cell/ml, and the cells were cultured in NK cell culture medium.
The NK cell culture medium used was a combination of various substances that were conventionally known to be necessary for NK culture. […] This was used as the NK cell culture medium of Example 1, to which alloferon was further mixed and used at 0.1 to 100 mg/L as needed. […]
Specifically, NK cells (1×10^5 cells/ml) were placed in 96-well plates, and then treated with 10 mg/L each of alloferons 1 to 4 in the NK cell culture medium of Example 1, and then cultured in an environment at 5% CO2, 37° C. for 48 hours or 21 days. […] After that, the radioactivity was measured using 1450 MicroBeta TriLux (PerkinElmer Life and Analytical Sciences).

NK cells [5] = test: Co-treatment of alloferon and other interleukins, NK cell proliferation; type: cell-based, human; conditions: only alloferon 1 added at 10 mg/L, 21 days, FIG. 4
Description: Specifically, NK cells (1×10^5 cells/ml) were placed in 96-well plates, and then treated with 10 mg/L each of alloferons 1 to 4 in the NK cell culture medium of Example 1, and then cultured in an environment at 5% CO2, 37° C. for 48 hours or 21 days. After the culture, [^3H]-thymidine (37 mBq) was added at 0.2 μCi per well and cultured for 8 hours. Both cells and medium were transferred to a glass fiber filter (size 90.120 mm; Wallac, Turkr, Finland) using a 96-well harvester. After drying the filter, a scintillator sheet (Meltilex, Wallac) was melted to coat the filter. After that, the radioactivity was measured using 1450 MicroBeta TriLux (PerkinElmer Life and Analytical Sciences).
In order to identify factors that imparts the influence other than alloferon during NK cell culture, the NK cell proliferation effect was confirmed after co-treatment with various combinations of interleukins. Except for the medium composition, the NK cell culture method was the same as in Test Example 1, and the cells were cultured for 21 days (*** random period).

[6] = after culture (day 21), 10 mg/L in NK cell culture medium of Example 1

| Sequence | NK (share of cells by FACS), Table 3 (NK cells [1]) | NKT (share of cells by FACS), Table 3 (NK cells [1]) | NKp30 expression (NK cells [2]) | NKp44 expression (NK cells [2]) | NKp46 expression (NK cells [2]) | Perforin expression (NK cells [2]) | IFN-r, Table 6 (NK cells [3]) | further results |
| --- | --- | --- | --- | --- | --- | --- | --- | --- |
| VSGHGQHGVH (engineered from known peptides) [Alloferon 4] | 71.5% | 8.4% | 61.1% | 68.2% | 82.5% | 99.8% | 5.84 µg/L | – |
| SGHGQHGV (engineered from known peptides) [Alloferon 3] | 69.7% | 13.2% | 47.8% | 51.3% | 69.1% | 90.4% | 3.31 µg/L | – |
| GVSGHGQHGVHG (engineered from known peptides) [Alloferon 2] | 73.8% | 12.4% | 53.2% | 50.9% | 78.6% | 99.9% | 4.87 µg/L | – |
| HGVSGHGQHGVHG (engineered from known peptides) [Alloferon 1] | 74.7% | 6.5% | 57.4% | 60.3% | 88.4% | 99.8% | 6.32 µg/L | concentration at which the maximum amount of NK cells was reached (NK cells [4]): 10 mg/L; NK cell proliferation (NK cells [5]): NK cell proliferation was induced; increase in number of NK cells compared to typical medium (RPMI) (NK cells [1]; 10 mg/L, day 0 to day 21): 1,430 times; increase of NK cells (NK cells [1]; 10 mg/L, day 0 to day 21): 8,790 fold; increase of NKT cells (NK cells [1]; 10 mg/L, day 0 to day 21): 560 fold; NK (share of cells by FACS) (NK cells [1]; [6]): 74.7%; NKT (share of cells by FACS) (NK cells [1]; [6]): 6.5%; NK (share of cells by FACS) (NK cells [1]; before culture (day 0)): 12.2%; NKT (share of cells by FACS) (NK cells [1]; before culture (day 0)): 1.7%; NK activity versus typical medium or NK cell culture medium of Example 1 (NK cells [2]; 21 days culture, FIG. 6 / Table 4): higher NK activity; IFN-r (NK cells [3]; alloferon 1 0.1 mg/L): 0.13 µg/L; IFN-r (NK cells [3]; alloferon 1 5 mg/L): 1.82 µg/L; IFN-r (NK cells [3]; alloferon 1 10 mg/L): 2.33 µg/L; IFN-r (NK cells [3]; alloferon 1 50 mg/L): 4.86 µg/L; IFN-r (NK cells [3]; alloferon 1 100 mg/L): 6.32 µg/L |
